From patent US20200239530A1, “COMPOUNDS AND METHODS OF MODULATING PROTEIN DEGRADATION” (Vividion Therapeutics, Inc., priority 2017, published 2020)

What was measured:
Assay in all cases: Cysteine liganding, probe competition
Assay type in all cases: binding
[1] = target: T1, NOC2L Nucleolar complex protein 2 homolog (Homo sapiens, UniProt Q9Y3T9)
T1 construct: Cells were resuspended in cold PBS on ice and sonicated with a probe sonicator to achieve lysis; endogenous in cells
Method in brief: (§1)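 Read-out is loss of desthiobiotin iodoacetamide labelling at cysteines, measured on streptavidin-enriched tryptic peptides. Compound preincubation ran 1 hr at 25° C in PBS lysate holding 5 mg/ml proteome before the probe was added.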

[2] = target: T2, TRIM65 Tripartite motif-containing protein 65 (Homo sapiens, UniProt Q6PJ69)
T2 construct: Cells were resuspended in cold PBS on ice and sonicated with a probe sonicator to achieve lysis; endogenous in cells
T2 sequence (Q6PJ69 1-517): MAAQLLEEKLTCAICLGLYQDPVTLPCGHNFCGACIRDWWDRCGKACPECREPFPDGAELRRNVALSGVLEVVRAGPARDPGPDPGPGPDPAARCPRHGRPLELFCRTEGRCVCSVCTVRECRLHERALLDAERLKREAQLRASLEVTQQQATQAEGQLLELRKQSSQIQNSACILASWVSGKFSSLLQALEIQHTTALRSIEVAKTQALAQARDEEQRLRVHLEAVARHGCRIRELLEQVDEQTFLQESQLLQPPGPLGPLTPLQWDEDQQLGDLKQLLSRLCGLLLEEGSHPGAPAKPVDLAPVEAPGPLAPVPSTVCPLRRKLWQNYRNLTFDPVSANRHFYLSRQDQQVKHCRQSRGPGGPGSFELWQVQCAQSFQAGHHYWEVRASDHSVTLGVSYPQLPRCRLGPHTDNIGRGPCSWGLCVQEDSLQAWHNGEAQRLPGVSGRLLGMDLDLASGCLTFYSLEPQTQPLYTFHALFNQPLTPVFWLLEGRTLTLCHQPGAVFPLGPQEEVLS
Method in brief: as §1

[3] = target: T3, DDX50 ATP-dependent RNA helicase DDX50 (Homo sapiens, UniProt Q9BQ39)
T3 construct: 200 μL of lysate containing 5 mg/ml proteome was treated with 2 μL of 100× compound stock; endogenous in cells
T3 sequence (Q9BQ39 1-737): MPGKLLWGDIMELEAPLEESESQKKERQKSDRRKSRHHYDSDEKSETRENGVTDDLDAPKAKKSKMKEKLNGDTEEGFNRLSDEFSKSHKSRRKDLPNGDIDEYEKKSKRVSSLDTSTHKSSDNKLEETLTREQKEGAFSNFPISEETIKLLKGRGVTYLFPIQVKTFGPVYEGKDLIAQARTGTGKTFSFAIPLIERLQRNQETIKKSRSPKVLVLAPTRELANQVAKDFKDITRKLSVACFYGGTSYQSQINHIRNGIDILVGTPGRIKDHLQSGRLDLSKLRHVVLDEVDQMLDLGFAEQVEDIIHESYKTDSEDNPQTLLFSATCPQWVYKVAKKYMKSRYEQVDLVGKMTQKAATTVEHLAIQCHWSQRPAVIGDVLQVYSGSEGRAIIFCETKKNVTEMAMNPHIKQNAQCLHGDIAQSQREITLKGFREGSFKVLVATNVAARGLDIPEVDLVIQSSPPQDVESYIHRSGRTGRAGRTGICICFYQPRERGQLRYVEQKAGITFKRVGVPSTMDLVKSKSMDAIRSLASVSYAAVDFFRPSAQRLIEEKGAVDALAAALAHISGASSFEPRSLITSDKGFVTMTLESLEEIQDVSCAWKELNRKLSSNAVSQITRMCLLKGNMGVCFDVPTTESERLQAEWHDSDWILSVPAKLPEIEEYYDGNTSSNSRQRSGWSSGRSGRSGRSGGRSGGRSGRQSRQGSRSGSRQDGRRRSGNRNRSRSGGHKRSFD
Method in brief: as §1

SMILES: COc1ccc2c(c1)CCCN2C(=O)CCl [KB02]
- Liganded ([1]; NOC2L Res# 585, uniprot Q9Y3T9): YES
- Liganded ([2]; TRIM65 Res# 320, uniprot Q6PJ69): YES
- Liganded ([3]; DDX50 Res# 603, uniprot Q9BQ39): YES

SMILES: O=C(CCl)Nc1cc(C(F)(F)F)cc(C(F)(F)F)c1 [KBO3]
- 100 Max ([1]; uniprot Q9Y3T9): 29.97
- 100 ave ([1]; uniprot Q9Y3T9): 7.195
- 500 Max ([1]; uniprot Q9Y3T9): 59.2
- 500 ave ([1]; uniprot Q9Y3T9): 56.82
- 100 Max ([2]; uniprot Q6PJ69): 35.1
- 100 ave ([2]; uniprot Q6PJ69): 19.4
- 500 Max ([2]; uniprot Q6PJ69): 70.9
- 500 ave ([2]; uniprot Q6PJ69): 60.2
- 100 Max ([3]; uniprot Q9BQ39): −9.62
- 100 ave ([3]; uniprot Q9BQ39): −13.925
- 500 Max ([3]; uniprot Q9BQ39): 28.63
- 500 ave ([3]; uniprot Q9BQ39): 22.82
